Laboratory results: the NIST ThermoML archive (doi:10.1016/j.jct.2005.03.019)
Where “and” joins values, the source holds several entries; their conditions need not be identical. Equal values may be shown once.

Legend:
[1] = 101 kPa, Liquid, Vibrating tube method
[2] = refractive index (Na D-line) (dimensionless); settings: 101.33 kPa, Liquid, Standard Abbe refractometry
[3] = xn = mol fraction of the nth substance listed; settings: 101 kPa, Liquid, Vibrating tube method

CC1COC(=O)O1 (stereo not drawn) [4-methyl-1,3-dioxolan-2-one]
Settings	mass density, 293.15 K [kg/m3]	mass density, 303.15 K [kg/m3]	mass density, 313.15 K	mass density, 323.15 K [kg/m3]	mass density, 333.15 K [kg/m3]	mass density, 343.15 K [kg/m3]	mass density, 353.15 K [kg/m3]	refractive index, 293.15 K
[1]	1200.3	1180.6	1161.3 kg/m3 and 1161.2 kg/m3	1142.4	1124	1106	1088.4	–
[2]	–	–	–	–	–	–	–	1.42095

CC1COC(=O)O1 (stereo not drawn) [4-methyl-1,3-dioxolan-2-one] + C=Cc1ccccc1
[3], x2 = 0
Settings	mass density [kg/m3]
293.15 K	1200.3
303.15 K	1180.6
313.15 K	1161.2
333.15 K	1124
343.15 K	1106
353.15 K	1088.4

c1ccccc1 [benzene]
Settings	mass density, 293.15 K [kg/m3]	mass density, 303.15 K [kg/m3]	mass density, 313.15 K [kg/m3]	mass density, 323.15 K [kg/m3]	mass density, 333.15 K [kg/m3]	mass density, 343.15 K [kg/m3]	mass density, 353.15 K [kg/m3]	refractive index, 298.15 K
[1]	877.8	868	857.9	847.4	836.6	825.4	813.9	–
[2]	–	–	–	–	–	–	–	1.5009

c1ccccc1 [benzene] + CC1COC(=O)O1
[3], x1 = 1
Settings	mass density [kg/m3]
293.15 K	877.8
303.15 K	868
313.15 K	857.9
323.15 K	847.4
333.15 K	836.6
343.15 K	825.4
353.15 K	813.9

CCc1ccccc1 [ethylbenzene]
Settings	mass density, 293.15 K [kg/m3]	mass density, 303.15 K [kg/m3]	mass density, 313.15 K [kg/m3]	mass density, 323.15 K [kg/m3]	mass density, 333.15 K [kg/m3]	refractive index, 298.15 K
[1]	867.8	858.6	851.8	847.6	845.8	–
[2]	–	–	–	–	–	1.4962

CCc1ccccc1 [ethylbenzene] + CC1COC(=O)O1
[3], x1 = 1
Settings	mass density [kg/m3]
293.15 K	867.8
303.15 K	858.6
313.15 K	851.8
323.15 K	847.6
333.15 K	845.8

C=Cc1ccccc1 [styrene]
Settings	mass density, 293.15 K [kg/m3]	mass density, 303.15 K [kg/m3]	mass density, 313.15 K [kg/m3]	mass density, 323.15 K [kg/m3]	mass density, 333.15 K [kg/m3]	mass density, 343.15 K [kg/m3]	mass density, 353.15 K [kg/m3]	refractive index, 298.15 K
[1]	906	896.4	886.9	877.3	867.8	858.2	848.6	–
[2]	–	–	–	–	–	–	–	1.546

Cc1ccccc1 [toluene]
Settings	mass density, 293.15 K [kg/m3]	mass density, 303.15 K [kg/m3]	mass density, 313.15 K [kg/m3]	mass density, 323.15 K [kg/m3]	mass density, 333.15 K [kg/m3]	mass density, 343.15 K [kg/m3]	mass density, 353.15 K [kg/m3]	refractive index, 298.15 K
[1]	866.8	857.5	848.2	838.9	829.5	820	810.5	–
[2]	–	–	–	–	–	–	–	1.4965

Cc1ccccc1 [toluene] + CC1COC(=O)O1
[3], x1 = 1
Settings	mass density [kg/m3]
293.15 K	866.8
303.15 K	857.5
313.15 K	848.2
323.15 K	838.9
333.15 K	829.5
343.15 K	820
353.15 K	810.5
